biological target: T1, ERR1 (also known as ERR-α or ERR-1) (Homo sapiens, UniProt P11474); assay: TR-FRET assay (disruption of co-activator peptide binding to ERR1 LBD); type: biochemical; settings: 6 nM 6His-ERR1LBD, 6 nM GST-SRC-2 peptide; average of 3 independent experiments
T1 sequence (P11474 193-421 limits assumed): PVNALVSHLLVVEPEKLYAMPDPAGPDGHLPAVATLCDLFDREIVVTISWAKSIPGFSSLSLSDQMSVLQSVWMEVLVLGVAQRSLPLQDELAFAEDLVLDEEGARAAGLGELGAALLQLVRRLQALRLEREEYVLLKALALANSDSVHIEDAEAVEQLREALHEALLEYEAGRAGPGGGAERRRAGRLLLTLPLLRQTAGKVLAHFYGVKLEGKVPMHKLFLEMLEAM
Experimental: Time-Resolved Fluorescence Resonance Energy Transfer (TR-FRET) experiments were performed to examine the functional response of ERR1 (also known as ERR-α or ERR-1) ligands. The TR-FRET assay described herein relied on the conformation of ERR1 for binding to a co-activator peptide: when a test compound binds to ERR1 and alters its conformation, it can disrupt the binding of the co-activator peptide. The components of this homogeneous secondary assay included: the ^6His-tagged-ERR1LBD, a GST-labeled-hSRC2 co-activator polypeptide and a fluorescent donor/acceptor pair from CIS bio international htrf/bioassays (Bedford, Mass.) using both an α-GST Europium (Eu) Cryptate label and an α^6His-XL665 (allophycocyanin) fluorophore.
For TR-FRET measurements, the reaction was buffered in 25 mM Tris pH 8, 2.5 mM Hepes, 20 mM KCl, 1 mM DTT, and 0.05 mg/mL BSA (delipidated). The final concentrations of reagents were 6 nM of ERR1LBD, 6 nM GST-SRC-2 peptide, 30 nM Eu cryptate, and 7.5 nM a^6His-XL665. Reactions were allowed to reach equilibrium at 25° C. for 4-18 h before collecting data on the Analyst from LJL Biosystems (Molecular Devices Sunnyvale, Calif.). […] Dose response curves were fitted using a hyperbolic equation and the data reported is the average of 3 independent experiments.

| Structure (SMILES) | EC50 |
| --- | --- |
| COc1ccc(Cn2ncc3cc(/C=C4\SC(=O)N(CCN5C[C@@H](C)O[C@@H](C)C5)C4=O)ccc32)c(C(F)(F)F)c1 [Compound 21, (5Z)-3-{2-[cis-2,6-Dimethylmorpholin-4-yl]ethyl}-5-({1-[4-methoxy-2-(trifluoromethyl)benzyl]-1H-indazol-5-yl)methylidene)-1,3-thiazolidine-2,4-dione] | 9 nM |
| O=C1S/C(=C\c2ccc3c(cnn3Cc3ccc(Cl)cc3C(F)(F)F)c2)C(=O)N1C1CCN(CC(F)(F)F)CC1 [Compound 150, (5Z)-5-({1-[4-Chloro-2-(trifluoromethyl)benzyl]-1H-indazol-5-yl}methylidene)-3-[1-(2,2,2-trifluoroethyl)piperidin-4-yl]-1,3-thiazolidine-2,4-dione] | 57 nM |
| CN1CC[C@@H](N2C(=O)S/C(=C\c3ccc4c(cnn4Cc4ccc(Cl)cc4C(F)(F)F)c3)C2=O)C1 [Compound 144, (5Z)-5-({1-[4-Chloro-2-(trifluoromethyl)benzyl]-1H-indazol-5-yl}methylidene)-3-[(3R)-1-methylpyrrolidin-3-yl]-1,3-thiazolidine-2,4-dione] | 31 nM |
| CC1(C)CC(N2C(=O)S/C(=C\c3ccc4c(cnn4Cc4ccc(Cl)cc4C(F)(F)F)c3)C2=O)CC(C)(C)N1 [Compound 175, (5Z)-5-({1-[4-Chloro-2-(trifluoromethyl)benzyl]-1H-indazol-5-yl}methylidene)-3-(2,2,6,6-tetramethylpiperidin-4-yl)-1,3-thiazolidine-2,4-dione] | 35 nM |
| CN1CCCC1CCN1C(=O)S/C(=C\c2ccc3c(cnn3Cc3ccc(Cl)cc3C(F)(F)F)c2)C1=O (stereo not shown) [Compound 140, (5Z)-5-({1-[4-Chloro-2-(trifluoromethyl)benzyl]-1H-indazol-5-yl}methylidene)-3-[2-(1-methylpyrrolidin-2-yl)ethyl]-1,3-thiazolidine-2,4-dione] | 32 nM |
| CCOc1nn(Cc2ccc(Cl)cc2C(F)(F)F)c2ccc(/C=C3\SC(=O)N(CCN4CCCC4)C3=O)cc12 [Compound 33, (5Z)-5-({1-[4-Chloro-2-(trifluoromethyl)benzyl]-3-ethoxy-1H-indazol-5-yl}methylidene)-3-(2-pyrrolidin-1-ylethyl)-1,3-thiazolidine-2,4-dione] | 185 nM |
| NC1CCCC(N2C(=O)S/C(=C\c3ccc4c(cnn4Cc4ccc(Cl)cc4C(F)(F)F)c3)C2=O)C1 (stereo not shown) [Compound 76, (5Z)-3-(3-Aminocyclohexyl)-5-({1-[4-chloro-2-(trifluoromethyl)benzyl]-1H-indazol-5-yl}methylidene)-1,3-thiazolidine-2,4-dione] | 14 nM |
| N=C(N)NC(=O)CN1C(=O)S/C(=C\c2ccc3c(cnn3Cc3ccc(Cl)cc3C(F)(F)F)c2)C1=O [Compound 56, N-Carbamimidoyl-2-[(5Z)-5-({1-[4-chloro-2-(trifluoromethyl)benzyl]-1H-indazol-5-yl}methylidene)-2,4-dioxo-1,3-thiazolidin-3-yl]acetamide] | 22 nM |
| CN1CCO[C@H](CN2C(=O)S/C(=C\c3ccc4c(cnn4Cc4ccc(Cl)cc4C(F)(F)F)c3)C2=O)C1 [Compound 192, (5Z)-5-({1-[4-Chloro-2-(trifluoromethyl)benzyl]-1H-indazol-5-yl}methylidene)-3-{[(2S)-4-methylmorpholin-2-yl]methyl}-1,3-thiazolidine-2,4-dione] | 45 nM |

Other lines, results leading:

| EC50 | Structure (SMILES) |
| --- | --- |
| 21 nM | O=C(O)c1ccccc1CN1C(=O)S/C(=C\c2ccc3c(cnn3Cc3ccc(Cl)cc3C(F)(F)F)c2)C1=O [Compound 379, 2-{[(5Z)-5-({1-[4-Chloro-2-(trifluoromethyl)benzyl]-1H-indazol-5-yl}methylidene)-2,4-dioxo-1,3-thiazolidin-3-yl]methyl}benzoic acid] |
| 23 nM | CN1CC[C@@H](N2C(=O)S/C(=C\c3ccc4c(cnn4Cc4ccc(Cl)cc4C(F)(F)F)c3)C2=O)[C@H](O)C1 (relative stereo) [Compound 275, (5Z)-5-({1-[4-Chloro-2-(trifluoromethyl)-benzyl]-1H-indazol-5-yl}methylidene)-3-[trans-3-hydroxy-1-methylpiperidin-4-yl]-1,3-thiazolidine-2,4-dione] |
| 64 nM | O=C1S/C(=C\c2ccc3c(cnn3Cc3ccc(Cl)cc3C(F)(F)F)c2)C(=O)N1CCNC(=O)C(F)(F)F [Compound 390, N-{2-[(5Z)-5-({1-[4-Chloro-2-(trifluoromethyl)benzyl]-1H-indazol-5-yl}methylidene)-2,4-dioxo-1,3-thiazolidin-3-yl]ethyl}-2,2,2-trifluoroacetamide] |
| 110 nM | CCN1CC[C@@H](N2C(=O)S/C(=C\c3ccc4c(cnn4Cc4ccc(Cl)cc4C(F)(F)F)c3)C2=O)[C@@H](F)C1 (relative stereo) [Compound 332, (5Z)-5-({1-[4-Chloro-2-(trifluoromethyl)benzyl]-1H-indazol-5-yl}methylidene)-3-[cis-1-ethyl-3-fluoropiperidin-4-yl]-1,3-thiazolidine-2,4-dione] |
| 53 nM | O=C1S/C(=C\c2ccc3c(cnn3Cc3ccc(Cl)cc3C(F)(F)F)c2)C(=O)N1C[C@@H]1CN2CCC[C@H]2CO1 [Compound 203, (5Z)-5-({1-[4-Chloro-2-(trifluoromethyl)benzyl]-1H-indazol-5-yl}methylidene)-3-[(3S,8aS)-hexahydro-1H-pyrrolo[2,1-c] [1,4]oxazin-3-ylmethyl]-1,3-thiazolidine-2,4-dione] |
| 61 nM | COC(=O)C(C1CCN(C(=O)OC(C)(C)C)CC1)N1C(=O)S/C(=C\c2ccc3c(cnn3Cc3ccc(Cl)cc3C(F)(F)F)c2)C1=O (stereo not shown) [Compound 215, tert-Butyl 4-{1-[(5Z)-5-({1-[4-chloro-2-(trifluoromethyl)benzyl]-1H-indazol-5-yl}methylidene)-2,4-dioxo-1,3-thiazolidin-3-yl]-2-methoxy-2-oxoethyl}piperidine-1-carboxylate] |
| 170 nM | O=C1S/C(=C\c2ccc3c(cnn3Cc3ccc(F)cc3C(F)(F)F)c2)C(=O)N1[C@@H]1CNCC[C@H]1O (relative stereo) [Compound 281, (5Z)-5-({1-[4-Fluoro-2-(trifluoromethyl)-benzyl]-1H-indazol-5-yl}methylidene)-3-[trans-4-hydroxypiperidin-3-yl]-1,3-thiazolidine-2,4-dione] |
| 48 nM | Cn1cnc(CN2C(=O)S/C(=C\c3ccc4c(cnn4Cc4ccc(Cl)cc4C(F)(F)F)c3)C2=O)c1 [Compound 402, (5Z)-5-({1-[4-Chloro-2-(trifluoromethyl)benzyl]-1H-indazol-5-yl}methylidene)-3-[(1-methyl-1H-imidazol-4-yl)methyl]-1,3-thiazolidine-2,4-dione] |
| 112 nM | CN(CCN1C(=O)S/C(=C\c2ccc3c(cnn3Cc3ccc(Cl)cc3C(F)(F)F)c2)C1=O)S(=O)(=O)N1CCCC1 [Compound 396, N-{2-[(5Z)-5-({1-[4-Chloro-2-(trifluoromethyl)benzyl]-1H-indazol-5-yl}methylidene)-2,4-dioxo-1,3-thiazolidin-3-yl]ethyl}-N-methylpyrrolidine-1-sulfonamide] |
| 66 nM | O=C1S/C(=C\c2ccc3c(cnn3Cc3ccc(Cl)cc3C(F)(F)F)c2)C(=O)N1C[C@H](O)CNCCF [Compound 295, (5Z)-5-({1-[4-Chloro-2-(trifluoromethyl)benzyl]-1H-indazol-5-yl}methylidene)-3-{(2R)-3-[(2-fluoroethyl)amino]-2-hydroxypropyl}-1,3-thiazolidine-2,4-dione] |
